pEC50: −log10 of the molar value.
Biological target: glucagon-like peptide 1 receptor (GLP-1R) (Homo sapiens, UniProt P43220)
Assay: cellular assay, agonist activity at GLP-1R
Assay type: cell-based
From the text: This disclosure relates to a dual agonist peptide(s) as well as pharmaceutical dosage formulations comprising, and methods for using, the same. The dual agonist peptides have affinity for, and in preferred embodiments about equal affinity for, glucagon-like peptide 1 receptor (GLP-1R) and glucagon receptor (GCGR), as may be determined using a cellular assay. In some embodiments, this disclosure provides pharmaceutical dosage formulations configured to induce weight loss in a human being with fatty liver disease. In some embodiments, the human being may, or may not, suffer from type 2 diabetes. In some embodiments, the disclosure provides pharmaceutical dosage formulations configured to reduce pathogenic plasma lipid mediators. As used herein, “pathogenic” serum lipid mediators, included but are not limited to the following reactive lipid species: malondialdehyde (MDA), isolevuglandins (IsoLG), methyglyoxal (MGO), 4-oxononenal (ONE), and 4-hydroxynonenal (HNE). Oxidized phospholipids include 1-palmitoyl-2-oxovaleroyl-sn-glycero-3-phosphorylcholine (POVPC), 1-O-alkyl-2-azelaoyl-sn-glycero-3-phophorylcholine (azPAF), 1-(Palmitoyl)-2-(5-keto-6-octene-dioyl) phosphatidylcholine (KOdiA-PC), 1-palmitoyl-2-F2-isoprostane-sn-glycero-3-phosphocholine (F2IsoP-PC), and 1-palmitoyl-2-(5,6)-epoxyisoprostane E2-sn-glycero-3-phosphocholine (PEIPC). […]

Chain of glucagon-like peptide 1 receptor (GLP-1R) (P43220 24-463): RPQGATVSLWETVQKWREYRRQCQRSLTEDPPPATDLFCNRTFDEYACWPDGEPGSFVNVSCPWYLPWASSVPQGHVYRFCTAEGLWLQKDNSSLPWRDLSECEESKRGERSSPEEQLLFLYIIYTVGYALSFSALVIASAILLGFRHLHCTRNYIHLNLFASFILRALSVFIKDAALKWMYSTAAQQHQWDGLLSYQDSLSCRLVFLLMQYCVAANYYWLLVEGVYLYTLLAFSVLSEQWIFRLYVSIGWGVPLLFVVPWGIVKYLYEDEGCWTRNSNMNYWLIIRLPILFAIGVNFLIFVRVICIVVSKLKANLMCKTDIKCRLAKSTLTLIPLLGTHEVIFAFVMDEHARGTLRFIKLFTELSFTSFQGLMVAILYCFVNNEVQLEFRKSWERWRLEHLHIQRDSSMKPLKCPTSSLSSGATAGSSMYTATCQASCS

With `CC[C@H](C)[C@H](NC(=O)[C@H](Cc1ccccc1)NC(=O)[C@H](CCC(=O)O)NC(=O)[C@@H]1CCCCNC(=O)CC[C@H](NC(=O)[C@H](CC(=O)O)NC(=O)[C@H](CC(C)C)NC(=O)[C@H](Cc2ccc(O)cc2)NC(=O)[C@H](CCCCN)NC(=O)[C@H](CO)NC(=O)[C@H](Cc2ccc(O)cc2)NC(=O)[C@H](CC(=O)O)NC(=O)[C@H](CO)NC(=O)[C@@H](NC(=O)[C@H](Cc2ccccc2)NC(=O)[C@@H](NC(=O)CNC(=O)[C@H](CCC(N)=O)NC(=O)C(C)(C)NC(=O)[C@@H](N)Cc2c[nH]cn2)[C@@H](C)O)[C@H](C)O)C(=O)N[C@@H](CCCCNC(=O)C2O[C@@H](OCCCCCCCCCCCCCCCCCC(=O)O)C(O)C(O)[C@@H]2O)C(=O)N[C@@H](C)C(=O)N[C@@H](C)C(=O)N1)C(=O)N[C@@H](CCC(N)=O)C(=O)N[C@@H](Cc1c[nH]c2ccccc12)C(=O)N[C@@H](CC(C)C)C(=O)N[C@@H](CC(C)C)C(=O)N[C@@H](CCC(N)=O)C(=O)N[C@H](C(N)=O)[C@@H](C)O` (stereo partly shown) [ALT-801, Pemvidutide] as the molecule, how does the pEC50 read?
The pEC50 was roughly 10.40.
